What was measured:
[1] = system: canonical BMP receptor signaling pathway; experiment: Inhibitor study with DMH1, western blot of hMSCs on scaffolds; type: cell-based, human; conditions: 50 μM
Description: (§1) Osteogenic differentiation of hMSCs on Col-GAG and MC-GAG: 3×10^5 hMSCs were seeded onto 8 mm discs of CG-GAG and MC-GAG scaffolds in proliferation media. 24 h after seeding, media was switched to osteogenic differentiation media consisting of 10 mM β-glycerophosphate, 50 μg/mL ascorbic acid, and 0.1 μM dexamethasone. For inhibitor studies, scaffolds were treated or untreated with dorsomorphin homologue 1 (DMH1; Sigma-Aldrich) or PD98059 (Cell Signaling Technologies, Beverly, MA) separately, all at a concentration of 50 μM. Fresh DMH1 and PD98059 were added to each media change every 3 days.
(§2) Western blot: Lysates were prepared from scaffolds at 0, 4, 14, and 24 days of culture using SDS sample buffer and equal amounts were subjected to 4-20% SDS-PAGE (Bio-Rad, Hercules, CA). Western blot analysis was carried out with antibodies against OPG, RANKL, phosphorylated small mothers against decapentaplegic 1/5 (p-Smad1/5), total Smad5, phosphorylated extracellular regulated kinase 1/2 (p-ERK1/2), total ERK1/2, and […] followed by 1:4000 dilutions of HRP-conjugated IgG antibodies (Bio-Rad, Hercules, CA) and an enhanced chemiluminescent substrate (Thermo Scientific, Rockford, IL). For detection of p-Smad1/5 and total Smad5, 10 μg of lysate was loaded per lane. For detection of OPG, RANKL, p-ERK1/2, total ERK1/2, and β-actin, 20 μg of lysate was loaded per lane. All antibodies were obtained from Cell Signaling Technologies (Beverly, MA) with the exception of RANKL, OPG, and β-actin antibodies which were obtained from Santa Cruz Biotechnology (Santa Cruz, CA). Imaging analysis was carried out using ImageJ (NIH, Bethesda, MD).
(§3) To characterize the mechanism responsible for differential OPG expression osteogenically differentiated hMSCs cultured on MC-GAG versus Col-GAG, DMH1, and PD98059 small molecule inhibitors were utilized for the canonical BMP receptor and MEK1/ERK1/2 signaling pathways, respectively (FIG. 11). […] Due to the massive upregulation of Smad1/5 phosphorylation in MC-GAG, a smaller inhibition was noted compared to Col-GAG. […] In contrast, OPG expression was increased in the presence of DMH1 on both Col-GAG and MC-GAG, particularly at the day 14 timepoint.

[2] = system: MEK1/ERK1/2 signaling pathway; experiment: Inhibitor study with PD98059, western blot of hMSCs on scaffolds; type: cell-based, human; conditions: 50 μM
Description: as §1, §2, §3

SMILES | phosphorylated ERK1/2 ([1]; MC-GAG at day 4) | OPG expression ([1]; both Col-GAG and MC-GAG, particularly day 14) | total Smad5, total ERK1/2, RANKL, or actin ([1]; hMSCs on Col-GAG and MC-GAG) | phosphorylation of Smad1/5 ([1]; hMSCs on either material) | phosphorylated Smad1/5, total Smad5, total ERK1/2, or actin [2] | phosphorylated ERK1/2 ([2]; all timepoints, either material) | OPG protein expression ([2]; hMSCs on Col-GAG) | RANKL expression ([2]; hMSCs on Col-GAG) | OPG protein expression ([2]; hMSCs on MC-GAG, all timepoints) | RANKL expression ([2]; hMSCs on MC-GAG, particularly day 24)
CC(C)Oc1ccc(-c2cnc3c(-c4ccnc5ccccc45)cnn3c2)cc1 [DMH1, dorsomorphin homologue 1] | small elevation | increased | No differences | partially decreased at all timepoints | – | – | – | – | – | –
COc1cccc(-c2cc(=O)c3ccccc3o2)c1N [PD98059] | – | – | – | – | no effects | decreased | no differences were detected | no differences were detected | decreased | downregulated

— US20250281628A1, “COMPOSITE NANOPARTICULATE MINERALIZED COLLAGEN GLYCOSAMINOGLYCAN MATERIALS WITH TIME RELEASE ANTI-RESORPTIVE FACTORS” (The Regents of the University of California, priority 2021, published 2025)
